How the values were obtained:
Gαs-GFP [1] = type: cell-based
β-adrenergic receptor = assay: cell-based or functional assay
Gαs-GFP [2] = type: cell-based; remark: listed apart in the source
[3] = living cells transfected with Gαs-GFP

Which results are given for CC(C)NCC(O)c1ccc(O)c(O)c1 (centres unmarked) [isoproterenol]?
cells showing internalized Gαs-GFP in response to isoproterenol (Gαs-GFP [1]; isoproterenol 20 μM, COS cells, 37° C., 58 cells in 15 experiments): Approximately 70%; release of Gαs-GFP from plasma membrane into the cytoplasm (Gαs-GFP [1]; [3]): rapid partial release of Gαs-GFP into the cytoplasm; time after treatment at which extent of Gαs-GFP release from plasma membrane was maximal (Gαs-GFP [1]; [3]): 1 min

For “Gαs-GFP fusion protein (GFP inserted within the internal amino acid sequence of long Gαs)”, which percent of cells with internalized Gαs-GFP in response to isoproterenol (20 µM) (β-adrenergic receptor) is on record?
The percent of cells with internalized Gαs-GFP in response to isoproterenol (20 µM) was 70%.

cholera toxin was tested. Which “displacement of Gαs-GFP from the plasma membrane” value (Gαs-GFP [2]) did it give?
Its value is “gradual displacement of Gαs-GFP from the plasma membrane throughout the cytoplasm”.
